Results as given in ChEMBL document CHEMBL3217577, “Recent applications of multicomponent reactions in medicinal chemistry” (Medchemcomm, 2012).
Converted amounts (≈) assume the structure as drawn.

What was measured:
[1] = molecular target: Glycogen synthase kinase-3 beta (Mus musculus, UniProt Q9WV60); assay: Inhibition of recombinant mouse GSK3beta expressed in COS-1 cells by luciferase reporter gene assay; assay type: cell-based
Plasmodium falciparum [2] = assay: Antiparasitic activity against chloroquine-resistant Plasmodium falciparum assessed as inhibition of parasite survival; assay type: functional, organism-based
HeLa = assay: Antiproliferative activity against human HeLa cells; assay type: functional
Plasmodium falciparum [3] = assay: Ratio of chloroquine IC50 to compound IC50 for chloroquine-resistant Plasmodium falciparum; assay type: functional
Plasmodium falciparum [4] = assay: Antiparasitic activity against chloroquine-resistant Plasmodium falciparum; assay type: functional, organism-based
[5] = molecular target: Mitogen-activated protein kinase 14 (Homo sapiens, UniProt Q16539); assay: Inhibition of p38 alpha MAP kinase (unknown origin)
Chain of Mitogen-activated protein kinase 14 (Q16539 whole entry): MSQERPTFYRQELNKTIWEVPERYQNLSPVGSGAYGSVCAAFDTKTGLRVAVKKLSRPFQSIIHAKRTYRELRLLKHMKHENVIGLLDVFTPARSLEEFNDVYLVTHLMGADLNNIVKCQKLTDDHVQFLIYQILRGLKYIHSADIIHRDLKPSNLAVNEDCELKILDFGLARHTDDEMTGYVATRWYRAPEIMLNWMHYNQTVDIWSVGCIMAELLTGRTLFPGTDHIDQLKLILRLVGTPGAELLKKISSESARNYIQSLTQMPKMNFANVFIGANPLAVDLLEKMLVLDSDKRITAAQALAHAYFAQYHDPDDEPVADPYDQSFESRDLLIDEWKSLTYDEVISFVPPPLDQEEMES

Aurora kinase A = molecular target: T1, Aurora kinase A (Homo sapiens, UniProt O14965); assay: Inhibition of Aurora A kinase (unknown origin)
T1 sequence (O14965 whole entry): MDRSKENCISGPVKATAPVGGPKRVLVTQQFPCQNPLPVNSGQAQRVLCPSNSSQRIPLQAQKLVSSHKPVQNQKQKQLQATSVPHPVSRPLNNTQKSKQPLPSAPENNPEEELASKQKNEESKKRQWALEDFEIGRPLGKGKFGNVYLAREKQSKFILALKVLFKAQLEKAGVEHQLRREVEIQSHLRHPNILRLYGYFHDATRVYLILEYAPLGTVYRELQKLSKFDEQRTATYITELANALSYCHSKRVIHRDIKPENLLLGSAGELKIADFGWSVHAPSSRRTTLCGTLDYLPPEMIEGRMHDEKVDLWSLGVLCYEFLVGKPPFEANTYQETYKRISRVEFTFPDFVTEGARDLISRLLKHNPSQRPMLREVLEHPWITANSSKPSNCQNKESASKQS

[6] = molecular target: T2, M-phase inducer phosphatase 2 (Homo sapiens, UniProt P30305); assay: Inhibition of CDC25B (unknown origin)
T2 sequence (P30305 whole entry): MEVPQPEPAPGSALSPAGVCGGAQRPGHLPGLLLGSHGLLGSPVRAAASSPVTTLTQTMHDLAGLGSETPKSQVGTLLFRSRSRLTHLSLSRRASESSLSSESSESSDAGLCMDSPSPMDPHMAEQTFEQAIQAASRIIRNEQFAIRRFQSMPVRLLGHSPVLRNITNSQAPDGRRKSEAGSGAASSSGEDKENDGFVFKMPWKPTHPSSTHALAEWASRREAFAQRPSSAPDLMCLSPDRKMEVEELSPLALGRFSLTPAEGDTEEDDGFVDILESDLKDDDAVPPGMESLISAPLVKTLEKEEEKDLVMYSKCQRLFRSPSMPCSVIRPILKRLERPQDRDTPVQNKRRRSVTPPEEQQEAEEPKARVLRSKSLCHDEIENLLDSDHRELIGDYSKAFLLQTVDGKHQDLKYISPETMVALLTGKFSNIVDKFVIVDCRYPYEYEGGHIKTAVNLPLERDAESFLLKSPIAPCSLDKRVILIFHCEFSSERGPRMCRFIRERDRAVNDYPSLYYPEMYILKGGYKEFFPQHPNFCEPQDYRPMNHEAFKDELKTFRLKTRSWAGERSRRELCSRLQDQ

[7] = molecular target: T3, Tyrosine-protein phosphatase non-receptor type 2 (Homo sapiens, UniProt P17706); assay: Inhibition of TC-PTP (unknown origin)
T3 sequence (P17706 whole entry): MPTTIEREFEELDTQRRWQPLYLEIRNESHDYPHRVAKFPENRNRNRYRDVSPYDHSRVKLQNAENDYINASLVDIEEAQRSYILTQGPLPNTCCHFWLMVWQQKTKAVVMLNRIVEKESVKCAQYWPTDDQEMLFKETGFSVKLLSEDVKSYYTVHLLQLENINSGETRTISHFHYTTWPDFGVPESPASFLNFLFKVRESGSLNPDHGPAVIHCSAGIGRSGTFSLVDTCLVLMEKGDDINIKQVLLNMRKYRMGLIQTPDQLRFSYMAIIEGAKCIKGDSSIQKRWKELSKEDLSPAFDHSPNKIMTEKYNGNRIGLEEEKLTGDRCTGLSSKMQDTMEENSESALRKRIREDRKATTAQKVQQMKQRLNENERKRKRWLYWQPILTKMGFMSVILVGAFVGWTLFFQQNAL

[8] = molecular target: T4, Tyrosine-protein phosphatase non-receptor type 1 (Homo sapiens, UniProt P18031); assay: Inhibition of PTP1B (unknown origin)
T4 sequence (P18031 whole entry): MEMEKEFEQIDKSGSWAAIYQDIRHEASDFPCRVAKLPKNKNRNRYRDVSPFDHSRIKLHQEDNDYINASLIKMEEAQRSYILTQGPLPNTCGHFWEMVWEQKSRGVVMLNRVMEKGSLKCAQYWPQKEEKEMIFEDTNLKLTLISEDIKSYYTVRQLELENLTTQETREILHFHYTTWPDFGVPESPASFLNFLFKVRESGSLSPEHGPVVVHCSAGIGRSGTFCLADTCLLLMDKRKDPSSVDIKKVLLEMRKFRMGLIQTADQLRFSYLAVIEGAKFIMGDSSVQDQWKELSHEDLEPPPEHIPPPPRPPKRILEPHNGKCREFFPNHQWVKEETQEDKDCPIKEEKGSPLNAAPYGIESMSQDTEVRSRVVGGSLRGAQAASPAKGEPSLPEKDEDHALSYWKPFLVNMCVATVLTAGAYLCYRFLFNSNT

[9] = Inhibition of Mycobacterium tuberculosis protein tyrosine phosphatase B
[10] = molecular target: T5, Tumour suppressor p53/oncoprotein Mdm2 (Homo sapiens, UniProt Q00987); assay: Competitive inhibition of recombinant human Mdm2 (aa 1 to 118)-p53 ( 1 to 321) interaction; assay type: protein assay
T5 sequence (P04637 whole entry, the tested form may be a part): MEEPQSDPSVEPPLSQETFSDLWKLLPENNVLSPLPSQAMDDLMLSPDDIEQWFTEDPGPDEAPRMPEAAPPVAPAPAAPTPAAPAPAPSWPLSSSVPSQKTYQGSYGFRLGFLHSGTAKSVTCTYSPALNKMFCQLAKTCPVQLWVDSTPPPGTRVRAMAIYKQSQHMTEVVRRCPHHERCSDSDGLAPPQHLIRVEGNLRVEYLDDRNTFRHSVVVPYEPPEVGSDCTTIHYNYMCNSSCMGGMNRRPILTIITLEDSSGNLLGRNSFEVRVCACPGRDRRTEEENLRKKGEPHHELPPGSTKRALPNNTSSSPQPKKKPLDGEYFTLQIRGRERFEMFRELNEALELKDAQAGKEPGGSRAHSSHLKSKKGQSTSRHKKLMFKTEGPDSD
T5 sequence (Q00987 whole entry, the tested form may be a part): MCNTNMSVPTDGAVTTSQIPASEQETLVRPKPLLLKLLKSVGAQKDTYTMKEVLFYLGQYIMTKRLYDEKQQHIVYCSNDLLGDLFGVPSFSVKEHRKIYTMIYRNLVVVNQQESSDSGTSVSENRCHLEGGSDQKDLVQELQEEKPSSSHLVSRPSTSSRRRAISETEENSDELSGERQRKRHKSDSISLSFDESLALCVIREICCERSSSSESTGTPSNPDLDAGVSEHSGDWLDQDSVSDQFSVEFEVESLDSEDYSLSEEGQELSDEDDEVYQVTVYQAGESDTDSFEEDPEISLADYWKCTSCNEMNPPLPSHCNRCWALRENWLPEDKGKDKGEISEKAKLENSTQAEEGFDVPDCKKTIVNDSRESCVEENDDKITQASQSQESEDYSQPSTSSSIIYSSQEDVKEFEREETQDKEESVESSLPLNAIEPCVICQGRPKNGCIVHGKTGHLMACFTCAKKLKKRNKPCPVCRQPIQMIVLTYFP

[11] = molecular target: T6, E3 ubiquitin-protein ligase Mdm2 (Homo sapiens, UniProt Q00987); assay: Binding affinity to HDM2 ( unknown origin) by NMR analysis
T6 sequence (Q00987 whole entry): as the sequence (Q00987 whole entry, the tested form may be a part) above

[12] = molecular target: T5, Tumour suppressor p53/oncoprotein Mdm2; assay: Inhibition of Mdm2-p53 interaction in human PA-1 cells; assay type: cell-based
[13] = molecular target: T6, E3 ubiquitin-protein ligase Mdm2; assay: Inhibition of Mdm2 in p53-deficient human PA-1 cells; assay type: cell-based
MCF7 = assay: Antiproliferative activity against human MCF7 cells; assay type: functional, cell-based
Trypanosoma cruzi = assay: Antiparasitic activity against epimastigote stage of Trypanosoma cruzi assessed as growth inhibition at 50 uM; assay type: functional
Prolyl endopeptidase = molecular target: T7, Prolyl endopeptidase (Homo sapiens, UniProt P48147); assay: Inhibition of purified prolyl oligopeptidase (unknown origin) after 1 hr by spectrophotometry
T7 sequence (P48147 whole entry): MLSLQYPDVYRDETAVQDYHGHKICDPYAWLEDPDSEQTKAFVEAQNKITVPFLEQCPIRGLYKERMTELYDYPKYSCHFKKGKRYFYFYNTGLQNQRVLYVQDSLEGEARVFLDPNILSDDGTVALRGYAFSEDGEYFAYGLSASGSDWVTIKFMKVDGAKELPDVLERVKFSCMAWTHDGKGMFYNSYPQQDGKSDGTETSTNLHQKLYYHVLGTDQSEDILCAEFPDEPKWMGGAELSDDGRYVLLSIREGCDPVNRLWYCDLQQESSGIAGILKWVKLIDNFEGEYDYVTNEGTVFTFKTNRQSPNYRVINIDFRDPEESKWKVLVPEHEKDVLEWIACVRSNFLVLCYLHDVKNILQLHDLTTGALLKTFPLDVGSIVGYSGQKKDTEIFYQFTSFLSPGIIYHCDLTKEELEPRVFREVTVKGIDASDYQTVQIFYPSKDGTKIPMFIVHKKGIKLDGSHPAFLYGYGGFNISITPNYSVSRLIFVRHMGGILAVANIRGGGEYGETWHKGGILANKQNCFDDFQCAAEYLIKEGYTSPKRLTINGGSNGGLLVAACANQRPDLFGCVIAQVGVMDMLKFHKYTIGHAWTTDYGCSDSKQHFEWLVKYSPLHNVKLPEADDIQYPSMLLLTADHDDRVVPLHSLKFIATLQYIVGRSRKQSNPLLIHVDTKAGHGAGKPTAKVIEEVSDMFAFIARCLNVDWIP

[14] = tested on: Mycobacterium tuberculosis; assay: Antibacterial activity against Mycobacterium tuberculosis H37Ra; assay type: functional
PC-3 = assay: Cytotoxicity against human PC3 cells; assay type: functional
HT-29 = assay: Cytotoxicity against human HT-29 cells; assay type: functional

Chain of Glycogen synthase kinase-3 beta (Q9WV60 whole entry): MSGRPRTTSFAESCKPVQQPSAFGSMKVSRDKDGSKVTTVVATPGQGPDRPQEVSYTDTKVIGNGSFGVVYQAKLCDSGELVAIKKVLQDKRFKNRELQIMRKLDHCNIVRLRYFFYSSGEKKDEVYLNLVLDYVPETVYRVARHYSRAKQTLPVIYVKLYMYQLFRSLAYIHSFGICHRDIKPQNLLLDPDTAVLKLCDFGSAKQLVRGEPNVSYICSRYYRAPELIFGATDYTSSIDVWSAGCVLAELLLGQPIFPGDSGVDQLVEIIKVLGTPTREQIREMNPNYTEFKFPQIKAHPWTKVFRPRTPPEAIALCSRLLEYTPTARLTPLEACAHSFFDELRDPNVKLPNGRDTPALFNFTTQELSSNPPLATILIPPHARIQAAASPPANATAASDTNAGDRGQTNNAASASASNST

Structure (SMILES): c1cnc2nc(-c3ccc4[nH]ncc4c3)c(NC3CCCCC3)n2c1
- Ki [1]: 10 nM

Structure (SMILES): O=C(CN(CCCNc1ccnc2cc(Cl)ccc12)C(=O)c1ccncc1)NC1CCCCC1
- IC50 (Plasmodium falciparum [2]): 610 nM

Structure (SMILES): O=C(CN(CCCNc1ccnc2cc(Cl)ccc12)C(=O)c1cnccn1)NC1CCCCC1
- IC50 (Plasmodium falciparum [2]): 540 nM

Structure (SMILES): Cc1cc2c(c(=O)n1C)C(c1ccc(N(C)C)c(Br)c1)C(C#N)=C(N)O2 (stereo not given)
- GI50 (HeLa): 330 nM

Structure (SMILES): CC(NCCCNc1ccnc2cc(Cl)ccc12)c1nc(Cc2ccccc2)c(N2CCOCC2)o1 (stereo not given)
- Ratio IC50 (Plasmodium falciparum [3]): 21
- IC50 (Plasmodium falciparum [4]): 3.8 nM

Structure (SMILES): Cc1ccoc1-c1cc(-c2ccc(Br)cc2)[nH]c(=N)c1C#N
- IC50 [5]: 70 nM

Structure (SMILES): N#Cc1c(-c2ccc(Cl)c(Cl)c2)cc(-c2ccc(Br)cc2)nc1N
- IC50 [5]: 120 nM

Structure (SMILES): COC(c1ccc(C)cc1)c1cnn2c(-c3ccccc3)cc3c(Cl)cccc3c12 (stereo not given)
- IC50 (Aurora kinase A): 13400 nM
- IC50 [6]: 2190 nM
- IC50 [7]: 4500 nM
- IC50 [8]: 1000 nM

Structure (SMILES): COc1ccc(NN2[C@@H]([C@H](O)c3cc(Br)c(OC)c(OC)c3)C=C[C@H]3C(=O)N(C4CCCCC4)C(=O)[C@H]32)cc1
- IC50 [9]: 66000 nM

Structure (SMILES): O=C1NC(=O)[C@@H]2C=C[C@H]([C@H](O)C3CC=CCC3)N(Nc3ccc(Cl)cc3Cl)[C@H]12 (stereo not given in full)
- IC50 [9]: 68000 nM

Structure (SMILES): O=C(NCc1ccccc1)C1C(=O)Nc2sc3c(c2C(=O)N1Cc1ccc(Cl)cc1)CCCC3 (stereo not given)
- Ki [10]: 40000 nM

Structure (SMILES): O=C(NCc1ccc(Cl)c(Cl)c1)C1C(=O)Nc2sc3c(c2C(=O)N1Cc1ccc(Cl)cc1)CCCC3 (stereo not given)
- Ki [10]: 45000 nM

Structure (SMILES): Cc1ccc(S(=O)(=O)/N=C(\Nc2ccc(Cl)cc2)NC(C)(C)C)cc1
- Kd [11]: > 100000 nM

Structure (SMILES): O=C1C(O)=C(c2ccccc2)C(c2ccc(Cl)cc2)N1Cc1ccc(Cl)cc1 (stereo not given)
- Kd [11]: > 200000 nM
- IC50 [12]: 12200 nM
- IC50 [13]: 26200 nM

Structure (SMILES): CC1(C)CC(=O)C2=C(C1)Oc1ccc3ccccc3c1C2c1ccc(O)cc1 (stereo not given)
- IC50 (MCF7): 6.7 µg/mL (≈ 18.1 µM)

Structure (SMILES): N#CC1=C(N)Oc2ccc3ccccc3c2C1c1ccc([N+](=O)[O-])cc1 (stereo not given)
- IC50 (MCF7): 8.9 µg/mL (≈ 25.9 µM)

Structure (SMILES): CC1(C(=O)NC2CCCCC2)CCCC(=O)N1CCCCCNc1ccnc2cc(Cl)ccc12 (stereo not given)
- IC50 (Plasmodium falciparum [4]): 96 nM

Structure (SMILES): COC(=O)C1=C(C)N(C)C(=O)N(C(=O)NCCCCNc2ccnc3cc(Cl)ccc23)C1c1ccc(OC)cc1 (stereo not given)
- Ratio IC50 (Plasmodium falciparum [3]): 200
- IC50 (Plasmodium falciparum [4]): 4 nM

Structure (SMILES): CNC(=O)CC1S/C(=N\N=C(/C)c2ccc(Br)cc2)N(C)C1=O (stereo not given)
- inhibition at 50 µM (Trypanosoma cruzi): 60%

Structure (SMILES): CCOC(=O)c1ccc2c(c1)c1c(c(-c3cccc4ccccc34)[n+]2C)CCO1
- IC50 (Prolyl endopeptidase): 75000 nM

Structure (SMILES): COc1ccc(C2Nc3ccccc3C3CCCOC32)cc1 (stereo not given)
- MIC [14]: 6.25 µM (≈ 1.85 µg/mL)

Structure (SMILES): Cn1c(=O)c2c(c3ccccc31)OC(N)=C(C#N)C2c1cncc(Br)c1 (stereo not given)
- GI50 (HeLa): 13 nM

Structure (SMILES): CC1CS(=O)(=O)CCN1/N=C/c1ccc([N+](=O)[O-])o1 (stereo not given) [NIFURTIMOX]
- inhibition at 50 µM (Trypanosoma cruzi): 100%

Structure (SMILES): CC(=O)O[C@H]1C(=O)[C@@]2(C)[C@H]([C@H](OC(=O)c3ccccc3)[C@]3(O)C[C@H](OC(=O)[C@H](O)[C@@H](NC(=O)c4ccccc4)c4ccccc4)C(C)=C1C3(C)C)[C@]1(OC(C)=O)CO[C@@H]1C[C@@H]2O [PACLITAXEL]
- GI50 (PC-3; Homo sapiens, PC-3): 7.2 nM
- GI50 (HT-29; Homo sapiens, HT-29): 5.3 nM

Structure (SMILES): CC/C(=C(\c1ccccc1)c1ccc(OCCN(C)C)cc1)c1ccccc1 [TAMOXIFEN]
- IC50 (MCF7): 10 µg/mL (≈ 26.9 µM)

Structure (SMILES): CC[C@@H](C)[C@H](NC(=O)[C@H]1CCCCN1C)C(=O)N(COC(=O)CC(C)C)[C@H](C[C@@H](OC(C)=O)c1nc(C(=O)N[C@@H](Cc2ccc(O)cc2)C[C@H](C)C(=O)O)cs1)C(C)C [TUBULYSIN A]
- GI50 (PC-3): 0.21 nM
- GI50 (HT-29): 0.32 nM
